Earlier results as cited in patent US8349982B2, “Macromonomers and hydrogels” (William Marsh Rice University, priority 2006, dated 2013).

Settings: stated as typical

Solubility in water (in words): insoluble in water
SMILES: C=CC(=O)OCC(CO)(COC(=O)C=C)COC(=O)CCCCCCCCCCCCCCCCC [PEDAS, Pentaerythritol diacrylate monostearate]
